From patent US20250074871A1, “PHENETHYLAMINES AND METHODS OF PREPARATION THEREOF” (priority 2022, published 2025)
pEC50, pIC50: −log10 of the molar value. Several values for one entry are separate records, joined by “and”; a condition that tells them apart may be missing. Equal entries are not always repeated. Where two headings read alike, the source gives them in different places.

Key:
5-HT1F = biological target: T1, 5-HT1F (Homo sapiens, UniProt P30939); assay: 5-HT receptor activity panel (Table 3); type: cell-based
T1 sequence (P30939 1-366): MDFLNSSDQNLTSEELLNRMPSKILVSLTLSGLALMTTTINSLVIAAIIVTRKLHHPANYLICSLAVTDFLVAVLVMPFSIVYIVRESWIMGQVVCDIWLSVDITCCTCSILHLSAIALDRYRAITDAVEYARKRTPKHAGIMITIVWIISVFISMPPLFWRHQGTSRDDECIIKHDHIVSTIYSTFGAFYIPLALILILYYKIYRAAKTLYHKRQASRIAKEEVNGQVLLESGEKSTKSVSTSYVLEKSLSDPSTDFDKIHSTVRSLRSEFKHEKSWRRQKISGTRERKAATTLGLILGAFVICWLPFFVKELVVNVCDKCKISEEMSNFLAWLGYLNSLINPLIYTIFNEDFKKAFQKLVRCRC

5-HT2C receptor = biological target: T2, 5-HT2C receptor (Homo sapiens, UniProt P28335); assay: cell-based; type: cell-based; details: for 5-HT2C BRET Eff %: normalized to % 5-HT stimulation
T2 construct: expressed in transfected cells; host or cells: HEK293T
T2 sequence (P28335 33-458): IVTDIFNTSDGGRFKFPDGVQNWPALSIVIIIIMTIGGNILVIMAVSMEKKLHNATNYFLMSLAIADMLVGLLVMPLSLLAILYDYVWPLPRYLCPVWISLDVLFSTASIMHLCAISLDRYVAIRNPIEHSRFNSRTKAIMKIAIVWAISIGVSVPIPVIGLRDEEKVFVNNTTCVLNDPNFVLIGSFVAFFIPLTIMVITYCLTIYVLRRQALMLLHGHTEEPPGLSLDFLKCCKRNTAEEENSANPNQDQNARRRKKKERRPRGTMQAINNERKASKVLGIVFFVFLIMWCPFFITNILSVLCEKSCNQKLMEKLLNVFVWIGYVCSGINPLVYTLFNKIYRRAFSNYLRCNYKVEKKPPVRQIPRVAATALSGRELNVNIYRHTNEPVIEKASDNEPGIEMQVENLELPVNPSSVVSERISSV

mice = assay: head-twitch response (HTR) in mice; type: in vivo, male C57BL/6J mice; details: for ED50: Mus musculus
Method: As used herein and unless otherwise specified, the term “HTR” refers to head-twitch response, which is a measurement of 5-HT2A activation in vivo.
As used herein and unless otherwise specified, the term “mice” refers to male C57BL/6J mice (6-8 weeks old).
HTR was assessed using a head-mounted neodymium magnet and a magnetometer detection coil, as described in Halberstadt et al., Psychopharmacology (Berl.), 2013, 227(4): 727-739. Table 8 below summarizes the ED50 in head twitch in mice of various compounds disclosed herein as compared to psilocybin. FIG. 3 illustrates the HTR relative to dose for compound 109: […]

5-HT7 = 5-HT7 (Homo sapiens, UniProt P34969); assay: 5-HT receptor activity panel (Table 3); type: cell-based
5-HT7, sequence (P34969 whole entry, species assumed): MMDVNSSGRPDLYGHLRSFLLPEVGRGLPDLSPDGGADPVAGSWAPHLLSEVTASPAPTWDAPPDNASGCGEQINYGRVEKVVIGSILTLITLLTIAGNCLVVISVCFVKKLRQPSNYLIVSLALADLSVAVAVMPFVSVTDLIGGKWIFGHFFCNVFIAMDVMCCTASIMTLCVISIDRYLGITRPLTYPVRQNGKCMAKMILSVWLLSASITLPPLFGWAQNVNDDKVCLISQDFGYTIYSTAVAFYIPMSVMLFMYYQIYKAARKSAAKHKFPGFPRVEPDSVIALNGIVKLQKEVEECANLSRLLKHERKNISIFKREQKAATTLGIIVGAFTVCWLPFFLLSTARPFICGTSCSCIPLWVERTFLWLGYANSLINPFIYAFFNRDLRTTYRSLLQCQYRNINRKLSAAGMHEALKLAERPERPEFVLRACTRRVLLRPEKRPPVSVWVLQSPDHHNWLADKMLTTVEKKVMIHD

[1] = plasma and brain PK predicted in humans; details: Human (predicted); for Kp: brain; for clearance: read-out: Cltot (converted); for half-life: read-out: T1/2 Vz (converted); for Vd: read-out: Vz
Description: Table 7a and Table 7b summarize, among other things, the observed plasma and Brain P K properties in animals, and the observed plasma and Brain P K properties predicted in humans, for compound 109 in Table 7a and compound 93 for Table 7b: […]

5-HT6 = 5-HT6 (Homo sapiens, UniProt P50406); assay: 5-HT receptor activity panel (Table 3); type: cell-based
5-HT6, sequence (P50406 whole entry, species assumed): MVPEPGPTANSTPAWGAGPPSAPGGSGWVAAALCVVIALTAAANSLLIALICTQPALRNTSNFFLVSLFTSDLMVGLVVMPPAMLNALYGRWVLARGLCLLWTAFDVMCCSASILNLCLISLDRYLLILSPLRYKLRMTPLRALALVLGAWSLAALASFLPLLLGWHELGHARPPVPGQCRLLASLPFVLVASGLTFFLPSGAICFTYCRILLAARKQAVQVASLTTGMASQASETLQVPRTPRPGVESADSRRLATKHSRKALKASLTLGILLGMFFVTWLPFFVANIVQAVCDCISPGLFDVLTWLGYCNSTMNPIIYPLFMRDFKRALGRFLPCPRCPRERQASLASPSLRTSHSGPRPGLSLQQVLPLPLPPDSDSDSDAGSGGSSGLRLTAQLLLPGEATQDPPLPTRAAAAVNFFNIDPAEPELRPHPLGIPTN

5-HT2A receptor = biological target: T3, 5-HT2A receptor (Homo sapiens, UniProt P28223); assay: 5-HT2A Gq dissociation BRET functional assay; type: cell-based; details: for 5-HT2A BRET Eff %: normalized to % 5-HT stimulation
T3 construct: expressed in transfected cells; host or cells: HEK293T
T3 sequence (P28223 whole entry): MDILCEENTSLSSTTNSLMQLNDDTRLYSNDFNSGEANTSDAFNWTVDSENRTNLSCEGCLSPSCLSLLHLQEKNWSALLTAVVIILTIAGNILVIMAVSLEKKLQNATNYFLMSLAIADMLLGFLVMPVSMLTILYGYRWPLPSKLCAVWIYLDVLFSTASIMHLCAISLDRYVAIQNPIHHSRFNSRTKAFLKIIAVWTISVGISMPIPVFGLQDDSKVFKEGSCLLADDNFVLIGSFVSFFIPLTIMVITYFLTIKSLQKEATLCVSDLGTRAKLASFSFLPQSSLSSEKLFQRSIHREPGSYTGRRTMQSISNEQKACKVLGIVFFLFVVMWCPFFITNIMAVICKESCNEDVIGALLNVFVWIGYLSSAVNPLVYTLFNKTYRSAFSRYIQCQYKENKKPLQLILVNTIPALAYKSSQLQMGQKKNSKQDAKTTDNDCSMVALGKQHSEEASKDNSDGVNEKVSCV

5-HT1E = 5-HT1E (Homo sapiens, UniProt P28566); assay: 5-HT receptor activity panel (Table 3); type: cell-based
5-HT1E, sequence (P28566 whole entry, species assumed): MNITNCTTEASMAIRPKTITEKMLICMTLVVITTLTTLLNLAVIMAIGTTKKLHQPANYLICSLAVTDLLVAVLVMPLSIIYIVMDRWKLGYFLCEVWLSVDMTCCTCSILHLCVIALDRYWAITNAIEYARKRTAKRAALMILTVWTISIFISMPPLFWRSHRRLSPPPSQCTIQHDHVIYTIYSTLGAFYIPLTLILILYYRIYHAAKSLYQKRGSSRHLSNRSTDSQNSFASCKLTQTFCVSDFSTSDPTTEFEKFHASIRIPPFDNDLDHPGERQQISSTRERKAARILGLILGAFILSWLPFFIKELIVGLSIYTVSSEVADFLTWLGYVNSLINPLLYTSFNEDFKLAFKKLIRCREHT

[2] = in vitro hepatocyte clearance, mouse; type: in vitro ADME; details: Mouse hepatocytes; for hepatocyte CLint: read-out: In vitro Clint (μL/min/10^6 cells); for half-life: read-out: In vitro T1/2; for CLint scaled: read-out: Scale-up Clint
Method: (§1) Additional experimentation was performed on compound 109. Table 6 summarizes, among other things, the anticipated hepatic clearance of compound 109 in various species, as specified in Table 6 and as determined by calculating the in vitro hepatocyte clearance over time and scaling such rate with such species' hepatocyte count and the anticipated liver blood flow rate in such species.

hepatocyte [3] = assay: in vitro hepatocyte clearance, mouse; type: in vitro ADME; details: Mouse
Method: as §1

[4] = biological target: T4, human ether-a-go-go-related gene (hERG) K+ channel (Homo sapiens, UniProt Q12809); assay: Eurofins hERG Qube APC Assay; type: cell-based; details: for IC50 (hERG)/EC50 (5-HT2A) ratio: Table 4
T4 construct: Eurofins
T4 sequence (Q12809 whole entry): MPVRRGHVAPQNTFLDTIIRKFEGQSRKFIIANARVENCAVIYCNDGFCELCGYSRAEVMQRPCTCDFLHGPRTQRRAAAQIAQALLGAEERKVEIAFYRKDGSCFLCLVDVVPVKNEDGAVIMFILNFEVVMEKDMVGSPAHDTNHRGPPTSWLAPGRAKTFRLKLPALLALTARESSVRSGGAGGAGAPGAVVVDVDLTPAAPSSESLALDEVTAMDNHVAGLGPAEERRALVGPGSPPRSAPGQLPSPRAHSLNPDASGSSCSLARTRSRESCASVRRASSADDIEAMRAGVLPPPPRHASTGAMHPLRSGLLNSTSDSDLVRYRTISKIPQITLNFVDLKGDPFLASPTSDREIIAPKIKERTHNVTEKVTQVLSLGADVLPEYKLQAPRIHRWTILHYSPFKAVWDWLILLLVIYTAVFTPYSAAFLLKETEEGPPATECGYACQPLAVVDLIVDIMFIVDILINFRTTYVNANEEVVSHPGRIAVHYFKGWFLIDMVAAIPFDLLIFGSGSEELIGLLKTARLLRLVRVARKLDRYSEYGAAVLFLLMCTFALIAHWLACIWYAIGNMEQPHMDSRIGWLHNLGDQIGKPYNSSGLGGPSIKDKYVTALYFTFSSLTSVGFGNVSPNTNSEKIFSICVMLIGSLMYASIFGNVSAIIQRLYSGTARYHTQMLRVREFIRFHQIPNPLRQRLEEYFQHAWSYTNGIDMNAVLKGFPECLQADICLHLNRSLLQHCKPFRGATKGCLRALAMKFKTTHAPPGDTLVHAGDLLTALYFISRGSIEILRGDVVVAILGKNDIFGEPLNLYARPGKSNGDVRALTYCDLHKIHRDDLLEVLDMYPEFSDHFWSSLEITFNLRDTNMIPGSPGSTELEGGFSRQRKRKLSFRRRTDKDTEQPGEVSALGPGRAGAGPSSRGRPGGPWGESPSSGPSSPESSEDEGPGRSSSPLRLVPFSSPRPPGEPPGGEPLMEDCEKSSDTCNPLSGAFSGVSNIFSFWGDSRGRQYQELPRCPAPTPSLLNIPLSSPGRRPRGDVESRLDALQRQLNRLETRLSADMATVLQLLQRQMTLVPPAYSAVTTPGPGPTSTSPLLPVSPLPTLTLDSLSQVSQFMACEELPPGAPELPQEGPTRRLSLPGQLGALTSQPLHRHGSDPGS
Description: As used herein and unless otherwise specified, the term “hERG risk” refers to the risk of a compound potentially inhibiting the human ether-a-go-go-related gene (hERG) K^+ channel, thereby leading to QT prolongation.
As a result of, many compounds disclosed in Table 1 and Table 2 were screened for the potential of “hERG risk” using pharmacological assays (e.g. Eurofins™ hERG Qube APC Assay). […].

5-HT5A = 5-HT5A (Homo sapiens, UniProt P47898); assay: 5-HT receptor activity panel (Table 3); type: cell-based; details: Table 3
5-HT5A, sequence (P47898 whole entry, species assumed): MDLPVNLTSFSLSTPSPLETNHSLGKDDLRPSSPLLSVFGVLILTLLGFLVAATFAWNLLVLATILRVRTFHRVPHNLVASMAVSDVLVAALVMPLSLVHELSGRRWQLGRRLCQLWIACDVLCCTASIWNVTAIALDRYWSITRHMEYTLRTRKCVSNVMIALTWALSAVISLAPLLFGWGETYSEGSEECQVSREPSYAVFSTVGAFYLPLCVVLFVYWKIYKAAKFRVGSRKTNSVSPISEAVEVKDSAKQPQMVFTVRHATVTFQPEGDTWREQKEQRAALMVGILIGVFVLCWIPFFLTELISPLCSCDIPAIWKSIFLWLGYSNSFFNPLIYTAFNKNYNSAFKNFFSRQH

[5] = in vitro hepatocyte clearance, monkey; type: in vitro ADME; details: Monkey hepatocytes; for hepatocyte CLint: read-out: In vitro Clint (μL/min/10^6 cells); for half-life: read-out: In vitro T1/2; for CLint scaled: read-out: Scale-up Clint
Method: as §1

hepatocyte [6] = assay: in vitro hepatocyte clearance, monkey; type: in vitro ADME; details: Monkey
Method: as §1

[7] = in vitro hepatocyte clearance, rat; type: in vitro ADME; details: for hepatocyte CLint / half-life: Rat hepatocytes; for hepatocyte CLint: read-out: In vitro Clint (μL/min/10^6 cells); for half-life: read-out: In vitro T1/2; for CLint scaled: rat, hepatocytes, read-out: Scale-up Clint
Method: as §1

hepatocyte [8] = assay: in vitro hepatocyte clearance, rat; type: in vitro ADME; details: Rat
Method: as §1

[9] = Table 2, at least three replicate trials, read-out: 5-HT2C BRET EC50
[10] = Table 3 panel, read-out: 5-HT2C EC50

In the case of `COc1cc(C(F)(F)F)ccc1CCNCc1ccccc1O` [Cpd #93], the pEC50 (5-HT1F) was 5.09, the “5-HT1F Eff, %” value (5-HT1F; Table 3) was 69% and the pEC50 (5-HT2C receptor; [9]) was 8.96 and 8.89. The “5-HT2C BRET Eff %” value (5-HT2C receptor; Table 2) was 105% and 103%, the “5-HT2C Eff, %” value (5-HT2C receptor; Table 3 panel) was 99% and the pEC50 (5-HT2C receptor; [10]) was 8.82. The ED50 (mice; mice) was 0.28 mg/kg, the pEC50 (5-HT7) was 9.30 and the “5-HT7 Eff, %” value (5-HT7; Table 3) was −12%. It also gave a Kp ([1]; read-out: Brain/plasma Ratio) of 9.55, a clearance ([1]; plasma) of 37.9 mL/min/kg and a half-life ([1]; plasma) of 117 min. The Vd ([1]; plasma) was 6.39 L/kg, the pEC50 (5-HT6) was 9.22 and the “5-HT6 Eff, %” value (5-HT6; Table 3) was −12%. For the same molecule, the EC50 (5-HT2A receptor; 5-HT2A BRET EC50 (nM), Table 2, at least three replicate trials) was 0.7 nM and 1.17 nM, the EC50 (5-HT2A receptor; 5-HT2A EC50, nM, Table 3 panel) was 0.3 nM and the pEC50 (5-HT2A receptor; EC50 BRET 2A, Table 4, unit inferred) was 8.92. For the same molecule, the “5-HT2A BRET Eff %” value (5-HT2A receptor; Table 2) was 96% and 91%, the “5-HT2A Eff, %” value (5-HT2A receptor; Table 3 panel) was 96% and the pEC50 (5-HT1E) was 4.15. The “5-HT1E Eff, %” value (5-HT1E; Table 3) was 211%, the hepatocyte CLint [2] was < 614 µL/min/1e6 cells and the half-life [2] was > 2.26 min. For the same molecule, the CLint scaled [2] was < 7250 mL/min/kg, the “Predicted hepatic CL” value (hepatocyte [3]) was <88.90 mL/min/kg and the pIC50 [4] was 6.21. The “IC50 (hERG)/EC50 (5-HT2A) ratio” value [4] was 517, the “5-HT5A EC50, nM” value (5-HT5A) was “Not active” and the hepatocyte CLint [5] was 467 µL/min/1e6 cells. The half-life [5] was 2.97 min, the CLint scaled [5] was 1680 mL/min/kg and the “Predicted hepatic CL” value (hepatocyte [6]) was 42.50 mL/min/kg. The hepatocyte CLint [7] was < 614 µL/min/1e6 cells, the half-life [7] was > 2.26 min and the CLint scaled [7] was < 2870 mL/min/kg. The “Predicted hepatic CL” value (hepatocyte [8]) was <54.16 mL/min/kg.
With `CSc1ccccc1CNCCc1ccc(C#N)cc1O` [Cpd #109] the “5-HT1F Eff, %” value (5-HT1F; Table 3) was 12%, the pEC50 (5-HT1F; Table 3, read-out: 5-HT1F EC50) was 6.24 and the pEC50 (5-HT2C receptor; [9]) was 6.60. For the same molecule, the “5-HT2C BRET Eff %” value (5-HT2C receptor; Table 2) was 114%, the “5-HT2C Eff, %” value (5-HT2C receptor; Table 3 panel) was 110% and the pEC50 (5-HT2C receptor; [10]) was 6.65. The ED50 (mice; mice) was 2.69 mg/kg, the “central hallucinogenic (or psychedelic) effects compared with psilocybin” value (mice; conclusion from Tables 6-8) was “less central hallucinogenic (or psychedelic) effects than traditional psychedelic compounds such as psilocybin” and the “duration of psychedelic effect (HTR over time)” value (mice; mice, FIG. 4, different doses) was “less than 30 minutes”. For the same molecule, the “5-HT7 EC50, nM” value (5-HT7; Table 3) was “Not active”, the Kp ([1]; read-out: Brain Plasma AUC Ratio) was 2.14 and the bioavailability ([1]; plasma, IM, read-out: IM f (%)) was 100%. The clearance ([1]; plasma) was 16.2 mL/min/kg, the half-life ([1]; plasma) was 120 min and the Vd ([1]; plasma) was 2.78 L/kg. The “5-HT6 Eff, %” value (5-HT6; Table 3) was 18%, the pEC50 (5-HT6; Table 3, read-out: 5-HT6 EC50) was 5.27 and the pEC50 (5-HT2A receptor; Table 2, at least three replicate trials, read-out: 5-HT2A BRET EC50) was 8.29. The “5-HT2A BRET Eff %” value (5-HT2A receptor; Table 2) was 102%, the “5-HT2A Eff, %” value (5-HT2A receptor; Table 3 panel) was 99% and the pEC50 (5-HT2A receptor; Table 3 panel, read-out: 5-HT2A EC50) was 8.32. For the same molecule, the pEC50 (5-HT2A receptor; Table 4, unit inferred, read-out: EC50 BRET 2A) was 8.32, the “5-HT1E Eff, %” value (5-HT1E; Table 3) was 12% and the pEC50 (5-HT1E; Table 3, read-out: 5-HT1E EC50) was 6.09. For the same molecule, the hepatocyte CLint [2] was > 614 µL/min/1e6 cells, the half-life [2] was < 2.26 min and the CLint scaled [2] was > 7250 mL/min/kg. The “Hepatic Extraction Ratio (E)” value (hepatocyte [3]) was >0.99, the “Predicted hepatic CL” value (hepatocyte [3]) was >88.90 mL/min/kg and the pIC50 [4] was 5.54. The “IC50 (hERG)/EC50 (5-HT2A) ratio” value [4] was 604, the “5-HT5A Eff, %” value (5-HT5A) was −133% and the pEC50 (5-HT5A; read-out: 5-HT5A EC50) was 4.91. It also gave a hepatocyte CLint [5] of 499 µL/min/1e6 cells, a half-life [5] of 2.78 min and a CLint scaled [5] of 1800 mL/min/kg. The “Hepatic Extraction Ratio (E)” value (hepatocyte [6]) was 0.98, the “Predicted hepatic CL” value (hepatocyte [6]) was 42.57 mL/min/kg and the hepatocyte CLint [7] was 234 µL/min/1e6 cells. The half-life [7] was 5.93 min, the CLint scaled [7] was 1090 mL/min/kg and the “Hepatic Extraction Ratio (E)” value (hepatocyte [8]) was 0.95. The “Predicted hepatic CL” value (hepatocyte [8]) was 52.55 mL/min/kg.
